Data on 51 molecules can be found in article PMC7822874, “Chemoprotective antimalarials identified through quantitative high-throughput screening of Plasmodium blood and liver stage parasites” (Scientific Reports, 2021).

Values joined by “and” are separate entries in the source; they are usually repeats but may differ in a detail not shown here. Equal values may be shown once.

The test system of one experiment is T1, Plasmodium falciparum Dd2-attB (parental line), asexual blood stages.
T1 construct: Dd2-attB, the isogenic parental line
Nature of the experiment: microbe, parasite or virus in culture. Details: replicate k of 3 (each line is one of three independent assays; the three lines of one compound and parasite line follow each other). Particulars: 72 h; n = 1. The gist of the method:
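Three independent runs, compound subset only; parental vs ScDHODH line compared by two-sided Student's t-test.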
With `O=C(O)c1ccc(O)c2ncc(N3CCOCC3)cc12` [NCGC00241036-03], the “Individual replicates / Log AC50 (M)” value was -4.8486 Log AC50 (M). Take `COC(=O)c1ccnc(-c2cn(C)cn2)c1NC(=O)Cc1ccc(Cl)cc1` [NCGC00420786-01]: the “Individual replicates / Log AC50 (M)” value was -5.0486 Log AC50 (M) and -4.7486 Log AC50 (M).

The experiment is the same for the next values; noted with them: Plasmodium falciparum, DD2, 72 h; n = 1; read-out: Individual replicates / Log AC50 (converted).
Take `O=C(O)c1ccc(O)c2ncc(N3CCN(CCc4ccncc4)CC3)cc12` [NCGC00247761-01]: the AC50 was 8.94 µM. Still for that read-out and setting: the figure for `O=C(N[C@H]1CCN(c2cc(-c3ccc(Cl)cc3)[nH]n2)C1)c1ccccc1` [NCGC00489097-01] is 6.33 µM; for `Cc1nn2c(c1-c1ccnn1C(C)C)N(Cc1ccccc1)CCC2` [NCGC00500003-01] it is 8.94 µM. In the case of `COC(=O)c1ccnc(-c2cn(C)cn2)c1NC(=O)Cc1ccc(Cl)cc1` [NCGC00420786-01], the AC50 was 17.8 µM. For the molecule `CCc1cccc(C)c1Nc1c(-c2ccc(N(C)C)cc2)nc2ncccn12` [NCGC00107648-03], the AC50 is 15.9 µM. Regarding `COc1ccc(CNC(=O)c2nc([S+](=O)([O-])Cc3ccccc3)ncc2Cl)cc1` [NCGC00117170-03], the AC50 was 8.94 µM. `O=C(O)c1ccc(O)c2ncc(NC3CCNCC3)cc12` [NCGC00241037-01]: the AC50 is 14.2 µM. Regarding `CC(OCCN1CCCCC1)c1cnn(-c2cc(C(=O)O)ccn2)c1-c1cccc(-c2ccccc2)c1` (stereo not shown) [NCGC00481287-01], the AC50 was 15.9 µM.

The next experiment shares this test system. As to the kind of experiment: microbe, parasite or virus in culture. Particulars: Plasmodium falciparum, DD2, Erythrocyte, 72 h, read-out: Calculated / Average Log AC50 (M), mean of replicates, 72 h (converted). More on the design: species or system P. falciparum Dd2-attB in human erythrocytes; SYBR Green-I proliferation assay, Dd2-attB parental line, asexual blood stages.
On to `O=C(O)c1ccc(O)c2ncc(N3CCN(CCc4ccncc4)CC3)cc12` [NCGC00247761-01], for which the AC50 is 1e-05 M.

Consider `O=C(N[C@H]1CCN(c2cc(-c3ccc(Cl)cc3)[nH]n2)C1)c1ccccc1` [NCGC00489097-01], for which the AC50 is 1.19e-05 M.

Consider `Cc1nn2c(c1-c1ccnn1C(C)C)N(Cc1ccccc1)CCC2` [NCGC00500003-01], for which the AC50 is 1.31e-05 M. For `O=C(O)c1ccnc2cc(C(OCCCC3CCCCN3)c3ccccc3Cl)[nH]c12` (stereo not shown) [NCGC00479271-01], the AC50 was 8.94e-06 M. Still for that read-out and setting: the figure for `OCc1cn(Cc2ccc(O)c3ncccc23)cn1` [NCGC00183377-01] is 2.08e-05 M; for `COC(=O)c1ccnc(-c2cc(C(=O)NCCc3ccccc3)ccn2)c1` [NCGC00351541-01] it is 2.16e-05 M; for `CC(C)c1c(-c2cnn(C(C)(C)C)c2)n2ncc(C#N)c2[nH]c1=O` [NCGC00500019-01] it is 1.53e-05 M. On the same count and under the same terms, the figure for `CN(C)CCCNC(=O)c1ccccc1-c1cc(O)c2ncccc2c1` [NCGC00247753-01] is 1.47e-05 M. In the case of `CN(C)CCCN1CCCN(C(=O)c2cccc(-c3cc(O)c4ncccc4c3)c2)C1` [NCGC00247763-01], the AC50 is 1.93e-05 M. On the same count and under the same terms, as for `COC(=O)c1ccc(OC(C)=O)c2ncccc12` [NCGC00187997-01], the figure is 1.93e-05 M. For `CN(C)CCCNC(=O)c1cccc(-c2cc(O)c3nccc(C(=O)O)c3c2)c1` [NCGC00247762-01], the AC50 is 2.25e-05 M. Consider `COC(=O)CCNc1cc(N2CCCN(C(=O)C(C#N)=C(C)C)CC2)nc(-c2ccccn2)n1` [NCGC00420856-01], for which the AC50 is 1.42e-05 M. `O=C(O)c1ccc(O)c2ncc(N3CCOCC3)cc12` [NCGC00241036-03]: the AC50 was 1.65e-05 M. For the molecule `COC(=O)c1ccnc(-c2cn(C)cn2)c1NC(=O)Cc1ccc(Cl)cc1` [NCGC00420786-01], the AC50 was 1.42e-05 M. The same measure, in the same setting: the figure for `CN1CCCCC1CCOC(c1cc2nccc(C(=O)O)c2[nH]1)c1ccccc1Cl` (stereo not shown) [NCGC00479006-01] is 1.93e-05 M; for `O=C(O)c1ccnc(-n2ncc(C(OCCN3CCCCC3)c3ccccc3)c2-c2ccccc2)c1` (stereo not shown) [NCGC00488202-01] it is 2.12e-05 M. Same read-out and setting: the figure for `Cc1nn2c(c1-c1ccnn1C(C)C)N(CC1CC1)CCC2` [NCGC00499721-01] is 1.59e-05 M; for `O=C(Nc1ccccc1F)c1nc([S+](=O)([O-])Cc2ccccc2F)ncc1Cl` [NCGC00117146-03] it is 1.34e-05 M; for `O=C(O)c1ccnc2cc(C(OCCN3CCCCC3)c3ccccc3Cl)[nH]c12` (stereo not shown) [NCGC00479257-01] it is 1.89e-05 M. On the same count and under the same terms, the figure for `C=CC(=O)N1CCCN(c2cc(NCCC(=O)O)nc(-c3ccccn3)n2)CC1` [NCGC00420854-01] is 2.16e-05 M. With `O=C(O)c1ccc(O)c2ncc(-c3n[nH]nc3-c3ccccc3)cc12` [NCGC00241764-02], the AC50 was 4.66e-06 M.

Take `CC(C)=C(C#N)C(=O)N1CCCN(c2cc(NCCC(=O)O)nc(-c3ccccn3)n2)CC1` [NCGC00420877-01]: the AC50 was 1.59e-08 M. On to `CC(C)(C)c1cc(N2CCC(NC(=O)c3ccccc3)C2)n[nH]1` (stereo not shown) [NCGC00488845-01], for which the AC50 was 2.25e-05 M. Same read-out and setting: the figure for `CCc1c(C)[nH]c2c(-c3cnn(-c4cc(CO)ccn4)c3)cnn2c1=O` [NCGC00387307-02] is 4.84e-08 M; for `CCOC(=O)c1cnn(-c2cc(C(N)=O)ccn2)c1-c1ccc(OC)cc1` [NCGC00421836-01] it is 6.33e-06 M; for `CCOC(=O)c1ccnc(-n2ncc(C(=O)OCC)c2-c2ccc(OC)cc2)c1` [NCGC00421879-01] it is 1.22e-05 M.

Turning to `O=C(O)c1ccc(O)c2ncc(N3CC(N4CCOCC4)C3)cc12` [NCGC00241761-01], the AC50 is 1.72e-05 M. Still for that read-out and setting: the figure for `CN1CCC(N2CCCC(CNC(=O)c3cccc(-c4cc(O)c5ncccc5c4)c3)C2)CC1` (stereo not shown) [NCGC00247748-01] is 1.85e-05 M; for `COCCn1c(C)cc(O)c(C(c2ccc(OC)cc2)N2CCN(c3ccccc3)CC2)c1=O` (stereo not shown) [NCGC00133311-02] it is 9.29e-06 M; for `O=C(N[C@H]1CC(=O)N(c2cc(-c3ccccc3)[nH]n2)C1=O)c1ccccc1` [NCGC00489852-01] it is 7.1e-10 M. In the case of `CCOC(=O)c1ccnc(CNCC(=O)N(CC)CCN(C)C)c1` [NCGC00371443-05], the AC50 is 1.47e-07 M. With `Cc1cccc(C)c1Nc1c(-c2cccs2)nc2ncccn12` [NCGC00107923-03], the AC50 was 5.03e-07 M. Regarding `CCc1cccc(C)c1Nc1c(-c2ccc(N(C)C)cc2)nc2ncccn12` [NCGC00107648-03], the AC50 is 1.93e-05 M. As for `Cn1cnc(-c2nccc3c(O)nc(OCCCC(F)(F)F)nc23)c1` [NCGC00381768-02], the AC50 is 2.08e-05 M. In the case of `COc1ccc(CNC(=O)c2nc([S+](=O)([O-])Cc3ccccc3)ncc2Cl)cc1` [NCGC00117170-03], the AC50 was 1.31e-05 M. For the molecule `CN1CCCC1CCOC(c1cc2nccc(C(=O)O)c2[nH]1)c1ccccc1Cl` (stereo not shown) [NCGC00421826-01], the AC50 was 6.58e-06 M. Turning to `Oc1ccc(CNc2ccccc2Br)c2cccnc12` [NCGC00184890-01], the AC50 is 1.78e-05 M. With `CCN(Cc1noc(CC(C)C)n1)C(=O)c1cnc(-c2ccccn2)nc1O` [NCGC00438951-02], the AC50 is 1.85e-05 M. Take `COC(=O)c1ccc(N(CCN2CCC(F)(F)CC2)c2ccc(F)cc2)cn1` [NCGC00390009-01]: the AC50 was 1.53e-05 M. Take `O=C(O)c1ccnc2c(O)cccc12` [NCGC00183785-01]: the AC50 was 2e-05 M. For the molecule `O=C(O)c1ccc(O)c2ncc(NC3CCNCC3)cc12` [NCGC00241037-01], the AC50 is 1.72e-05 M.

As for `CC(OCCN1CCCCC1)c1cnn(-c2cc(C(=O)O)ccn2)c1-c1cccc(-c2ccccc2)c1` (stereo not shown) [NCGC00481287-01], the AC50 is 1.36e-05 M. Still for that read-out and setting: the figure for `O=C(O)c1ccnc2cc(C(OCCCN3CCCC3)c3ccccc3Cl)[nH]c12` (stereo not shown) [NCGC00421827-01] is 4.48e-06 M; for `C=C[S+](=O)([O-])N1CCCN(c2cc(NCCC(=O)O)nc(-c3ccccn3)n2)CC1` [NCGC00420874-01] it is 2.25e-05 M.

On to `CN(C)CCCNC(=O)c1ccc(-c2cnc3c(O)ccc(C(=O)O)c3c2)cc1` [NCGC00189503-01], for which the AC50 was 1.93e-05 M. In the case of `O=C(O)c1ccc(O)c2ncc(N3CCCCC3)cc12` [NCGC00241752-01], the AC50 was 1.65e-05 M. Regarding `O=C(O)c1ccc(O)c2ncc(N3CCCC3)cc12` [NCGC00189500-01], the AC50 is 1.72e-05 M. With `Cc1cccc(CN2CCCn3nc(C)c(-c4ccnn4C(C)C)c32)n1` [NCGC00499722-01], the AC50 is 1.65e-07 M. Regarding `O=C(O)c1ccnc(-n2ncc(C(OCCN3CCCCC3)c3ccccc3Cl)c2-c2ccccc2Cl)c1` (stereo not shown) [NCGC00487469-01], the AC50 is 1.85e-05 M. With `O=C(O)c1ccnc(-n2ncc(C(OCCN3CCCCC3)c3ccccc3)c2-c2ccccc2Cl)c1` (stereo not shown) [NCGC00483104-01], the AC50 is 1.36e-05 M. With `O=C(O)c1ccnc2c(O)cc(N3CCOCC3)cc12` [NCGC00247744-02], the AC50 was 1.5e-07 M.
